Laboratory results published in BindingDB's records for doi:10.1016/j.bmc.2013.08.025 (Novartis Institutes For Biomedical Research, 2013).

Tests used:
[1] = Antagonist activity at CRTh2 receptor in human isolated eosinophil assessed as inhibition of eotaxin-induced shape change after 5 mins by flow cytometry
[2] = Antagonist activity at CRTh2 receptor in human isolated eosinophil assessed as inhibition of 11-Dehydro-TXB2-induced shape change after 5 mins by flow cytometry
[3] = Antagonist activity at CRTh2 receptor in human whole blood assessed as inhibition of PGD2-induced eosinophil shape change after 5 mins by flow cytometry
[4] = Antagonist activity at CRTh2 receptor in human isolated eosinophil assessed as inhibition of delta12-PGD2-induced shape change after 5 mins by flow cytometry
[5] = target: T1, Prostaglandin D2 receptor 2 (Homo sapiens, UniProt Q9Y5Y4); test: Antagonist activity at CRTh2 receptor in human isolated eosinophil assessed as inhibition of DK-PGD2-induced shape change after 5 mins by flow cytometry
T1 sequence (Q9Y5Y4 whole entry): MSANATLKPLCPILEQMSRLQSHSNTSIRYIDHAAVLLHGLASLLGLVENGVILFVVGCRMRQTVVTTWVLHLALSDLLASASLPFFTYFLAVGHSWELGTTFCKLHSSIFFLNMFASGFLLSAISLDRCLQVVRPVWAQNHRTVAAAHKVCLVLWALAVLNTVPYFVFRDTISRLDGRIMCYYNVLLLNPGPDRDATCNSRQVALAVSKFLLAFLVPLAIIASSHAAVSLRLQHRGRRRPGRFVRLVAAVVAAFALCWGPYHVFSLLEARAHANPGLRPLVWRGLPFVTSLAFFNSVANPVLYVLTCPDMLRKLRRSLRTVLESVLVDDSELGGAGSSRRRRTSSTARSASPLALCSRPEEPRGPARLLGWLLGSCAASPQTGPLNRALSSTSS

[6] = Antagonist activity at CRTh2 receptor in human isolated eosinophil assessed as inhibition of DK-PGD2-induced shape change after 5 mins by flow cytometry

## Cc1c(CC(=O)O)c2cccnc2n1Cc1ccc(S(C)(=O)=O)cc1
[1]
  IC50: > 10 µM
[2]
  IC50: 4 nM
[3]
  IC50: 102 nM
[4]
  IC50: 4 nM

## Cc1c(CC(=O)O)c2cccnc2n1Cc1ccc([N+](=O)[O-])cc1
[5]
  IC50: 24 nM

## Cc1c(CC(=O)O)c2cccnc2n1Cc1ccc([S+](C)[O-])cc1 (configuration not stated)
[6]
  IC50: 51 nM

## Cc1c(CC(=O)O)c2cccnc2n1Cc1ccc(Cl)cc1
[6]
  IC50: 23 nM
